Source: patent publication US11129867B2, “Method of treating cancer cells” (priority 2017, dated 2021)
Where a SMILES comes first, the peptide text is derived from it. The star is where a group is joined. X1 = CN(C)c1ccc2c(-c3ccc(C(=O)*)cc3C(=O)[O-])c3ccc(=[N+](C)C)cc-3oc2c1

How the values were obtained:
Caspase-7 = experiment: Western blotting of Caspase-7; type: cell-based, human; details: Ca922, 25 μM, FIG. 11B
Protocol: Protein lysate of Ca922 cells treated with TMR-GBP 25 μM were blotted with antibodies against Caspase-3, Caspase-7, Caspase-9 and Poly (ADP-ribose) polymerase (PARP). Representative blots are shown.
Western Blotting Analysis
Cells were harvested by trypsion or scratch and lysed in RIPA buffer (50 mM Tris-HCl, pH 7.4, 150 mM NaCl, 0.1% SDS, 0.5% Sodium deoxycholate, 1% NP-40) supplemented with 1× protease inhibitor cocktail. Sample was incubated on ice for 30 minutes and scraped every 10 minutes. Centrifuge at 13,000 rpm at 4° C. for 15 minutes, then collect supernatant for analysis. Protein concentration was determined by Bradford assay. First, 5× Bradford assay dye reagent was diluted into […], and mixture with RIPA (as standard) or samples. Concentration was obtained by spectrophotometer measurement. Equal volume of 2× laemmli buffer containing β-ME was added into protein lysate for goal concentration. Protein samples were boiled at 100° C. for 15 minutes and resolved by 10% SDS-PAGE gel or 4%-15% gradient gel. Then, transfer to PVDF membrane by 100V or 110V voltage for 1 hour. […] Washing the membrane three times with 1×PBST for every 5 minutes, protein band was detected by modified ECL (ddH2O, […] Tris pH8.0, 200 μM p-coumaric acid, 1.25 mM luminal, 0.001% H2O2) with ImageQuant LAS 4000 digital imaging system.

[1] = system: intracellular ROS in Ca922 cells; experiment: DCFDA cellular ROS detection assay; type: cell-based, human
Protocol: Ca922 cells were seeded in dark, clear bottom 96-well microplate with 25,000 cells per well. Cells were then labeled with 25 μM DCFDA for 45 minutes and 25 μM TMR-GBP for 6 hours. 1% H2O2 (1 hour) and 55 mM TBHP (4 hours) treatments were positive control, mimic ROS activity to oxidize DCFDA to fluorescent DCF. Cells were then analyzed on a fluorescent plate reader. Standard deviations of three independent experiments were indicated as bars.
DCFDA Cellular ROS Detection Assay
Seeded cells at 2.5×10^4 cells/well on a dark, clear bottom 96-well microplate and incubated in complete media with 10% FBS without phenol red. Prepared 1× Buffer by diluting 10× buffer in ddH2O and a working DCFDA solution (25 μM) by adding the appropriate volume of 20 mM DCFDA to 1× Buffer. Washed cells once in 1× Buffer and stained cells with 25 μM DCFDA for 45 minutes at 37° C. Then, washed cells once in 1× Buffer or 1×PBS. TMR-GBP, H2O2 and TBHP could be diluted in complete media with 10% FBS without phenol red. Added 100 μL/well of TMR-GBP, H2O2 (as positive control), TBHP (as positive control) and incubated for desired time period. Cells should not be washed after treatment with the TBHP or other compounds of interest. It should contain non-stained cells to determine background fluorescence. Read signal at Ex/Em: 485/535 nm by fluorescent plate reader

OSC20 = experiment: Time-lapse live cell imaging, OSC20; type: cell-based, human; details: OSC20, unbound TMR-GBP removed, imaged at 15 minutes interval for 16 hours, FIG. 4
Protocol: Time-Lapse Live Cell Imaging
In order to monitor cell morphology and the stability of TMR-GBP, cells were incubated in 35 mm dish or 4 well dish at 37° C. overnight. Replaced the culture medium with CO2-independent medium with supplement of 10% fetal bovine serum (FBS) and 1% penicillin-streptomycin, cells were treated with reagent (TMR, GBP, TMR-GBP) for the time according to the experiment and subjected to time-lapse live cell imaging. Cells were maintained on the microscope stage incubator at 37° C. Multiple-positional time-lapse imaging was performed using an automated Leica DMI6000 inverted microscope equipped with an HCX PL FL 20λ/NA0.4 objective and Andor Luca R EMCCD camera. Images of cells were taken at different interval time and analyzed by MetaMorph software.

MDA-MB-231 = experiment: WST-8 cell viability assay, MDA-MB-231; type: cell-based; details: MDA-MB-231 (breast cancer), different concentrations, 48 hours, FIG. 3
Protocol: Human oral squamous cell carcinoma (OSCC) cell lines, Ca922, OSC20, OECM-1, OC3, CGHNC9, HSC3, plus A549, MDA-MB-231, MCF7, Huh7, HeLa-Kyoto, Detroit 562, H520, H2170, and 293T cells were used in this study. Ca922, CGHNC9, MDA-MB-231, MCF7, Huh7, HeLa-Kyoto, Detroit 562, and 293T cells were all cultured in high-glucose Dulbecco's Modified Eagle Medium (DMEM). OSC20 and HSC3 cells were cultured in Dulbecco's Modified of Eagle's Medium/Ham's F-12 50/50 Mix (1:1). OECM-1, A549, H520, and H2170 cells were grown in RPMI-1640 medium. All culture media were supplemented with 10% fetal bovine serum (FBS) and 1% penicillin-streptomycin. OC3 cells were cultured in 1:1 DMEM/KSFM (keratinocyte serum-free medium) with supplied supplement of Bovine pituitary extract (BPE) and epidermal growth factor (EGF) followed by instruction. All the cells in this study were maintained at 37° C. in humidified atmosphere containing 5% CO2.
WST-8 [2-(2-methoxy-4-nitrophenyl)-3-(4-nitrophenyl)-5-(2,4-disulfophenyl)-2H-tetrazolium, monosodium salt] cell viability assay
Cells were seeded into 96 well plate and incubated at 37° C. overnight. […] The amount of formazan produced is proportional to the number of live cells and is expressed as cellular viability. […] Cell viability was measured at the absorbance of 450/655 nm wavelength by ELISA reader.

CN(C)c1ccc2c(-c3ccc(C(=O)N[C@@H](CC(N)=O)C(=O)N[C@@H](Cc4ccc(O)cc4)C(=O)N[C@@H](CCCNC(=N)N)C(=O)N[C@@H](Cc4c[nH]c5ccccc45)C(=O)N[C@@H](CCCNC(=N)N)C(=O)N[C@@H](CS)C(=O)N[C@@H](CCCCN)C(=O)N[C@@H](CC(N)=O)C(=O)N[C@@H](CCC(N)=O)C(=O)N[C@@H](CC(N)=O)C(=O)O)cc3C(=O)[O-])c3ccc(=[N+](C)C)cc-3oc2c1 [TMR-GBP] (X1-NYRWRCKNQN-OH; N-terminus and C-terminus assumed)
activation of caspase-7 (Caspase-7): did not activate
increase of ROS compared with control cells ([1]; Ca922, 25 μM, 6 hours, DCFDA, after background subtraction, FIG. 9): 5 folds
ROS production with NAC treatment ([1]; NAC treatment in the presence of TMR-GBP): reversed by NAC treatment
cell death by time-lapse microscopy (OSC20): most cells die in 8 hours
cell viability (MDA-MB-231): not markedly affected
